Source: patent US7629359B2, “Use of piperidine derivatives as dermo-decontracting agents” (L'Oreal, priority 2004, dated 2009)

System: dermis equivalent model consisting of a matrix of collagen seeded with normal human fibroblasts
Test: Dermo-decontracting effect on dermis equivalent model (spontaneous contraction of collagen gel)
Format: cell-based
Conditions: for activity as dermo-decontracting agent in the test of Example 1: dermis equivalent test presented in Example 1

| SMILES | activity as dermo-decontracting agent in the test of Example 1 | reduction of the contraction of the fibroblasts compared with the control (1 μM test compound, on average over the duration of the experiment (0, 4, 8 and 24 hours), experiment repeated three times) |
| --- | --- | --- |
| CN1C(=O)CN=C(c2ccccc2)c2cc(Cl)ccc21 [diazepam] | not active | – |
| COc1ccc([C@@H]2Sc3ccccc3N(CCN(C)C)C(=O)[C@@H]2OC(C)=O)cc1 [diltiazem] | not active | – |
| O=C(O)/C=C\C(=O)O.c1ccc(CCCCN2CCC(c3ccccc3)CC2)cc1 [maleic acid salt of 4-phenyl-1-(4-phenylbutyl)piperidine] | – | 17% |
| CCOC(=O)C1=C(C)NC(C)=C(C(=O)OC)C1c1cccc([N+](=O)[O-])c1 (stereo not shown) [nitrendipine] | not active | – |
